# In US10722492B2, “Andrographolide treats progressive forms of multiple sclerosis” (INNOBIOSCIENCES, LLC, priority 2016, dated 2020):
# Read-outs that look alike come from different tables or passages of the source.
# Columns and labels:
# microglia = conditions: cited from earlier work
# [1] = many clinical studies; cited from earlier work
# [2] = system: Jurkat cell line (lymphom of T cells); conditions: through inhibition of NFAT and MAPK-Erk 1/2; cited from earlier work
# [3] = system: MOG-immunized C57BL/6J mice (EAE); test: EAE therapeutic treatment from chronic phase (day 15 post-immunization); format: in vivo
# Method: […] […] As controls MOG-immunized C57BL/6J mice were injected with vehicle (PBS) daily. At day 21 p.i. mice were sacrificed. MOG-immunized mice treated with either PBS (A-C) or AG (B-D) were perfussed and 4% p-formaldehyde fixed. Toraxic spinal cords sections were dissected and analyzed for inflammatory infiltrate by hematoxylin-eosin staining (H&E) and for demyelination with luxol fast blue staining (LFB). Insets show higher magnification (20×).
# [4] = system: patients with progressive forms of Multiple Sclerosis; test: Controlled, randomized, double-blinded human clinical trial of andrographolide; format: in vivo
# Method: We have tested andrographolide in a controlled, randomized, double-blinded human clinical trial of andrographolide 140 mg orally administered twice per day (i.e., 280 mg per day) in patients with progressive forms of Multiple Sclerosis. The principle objective of that study was to determine efficacy, safety and tolerability of andrographolide in retarding the progression of brain atrophy. Secondary end-points included: delay in the disability capacity progression through the Expanded Disability Status Scale (EDSS) and Multiple Sclerosis Funcitonal Composite (MSFC) at 24 months compared to the baseline; delay in cognitive impairment by means of Paced Auditory Serial Addition Test (PASAT), Symbol Digit Modalities Test (SDMT) and depression (Beck) at 24 months compared to the baseline; quality of life Multiple Sclerosis Impact Scale (MSIS 29) and fatigue (Krupp) through parameters reported by the patients at 24 months compared to the baseline; Tolerability of andrographolide measured by Magnetic Resonance (MR) at 24 months compared to baseline; Number and volume of new lesions or larger size in T2 by MR at 24 months compared to the baseline; Number of new hipointense lesions in T1 or (gadolinium captive) by MR at 24 months compared to baseline; Delay in the retinal thinning measured by Optical Coherence Tomography (OCT) and visual field at 24 months compared to the baseline; and Safety of andrographolide at 24 months through the record of adverse effects in symptom diary and programmed interviews. The details of the study are described more completely in U.S. Provisional patent application Ser. No. 62/347,218 (filed 8 Jun. 2016), incorporated here by reference.
# The numbers (x axis) on the figure are measurements 6: corresponds to 2 year treatment. There are still many patients that need to complete the 2 year treatment. The data therefore show a lot of variance. […] The 9-HPT is a brief, standardized, quantitative test of upper extremity function. It is the second component of the MSFC to be administered at each visit. Both the dominant and non-dominant hands are tested twice. The patient is seated at a table with a small, shallow container holding nine pegs and a wood or plastic block containing nine empty holes. On a start command when a stopwatch is started, the patient picks up the nine pegs one at a time as quickly as possible, puts them in the nine holes, and, once they are in the holes, removes them again as quickly as possible one at a time, replacing them into the shallow container. The total time to complete the task is recorded. Two consecutive trials with the dominant hand are immediately followed by two consecutive trials with the non-dominant hand.
# There are 3 components of the Multiple Sclerosis Functional Composite (MSFC) disease activity index: function of the legs, function of the arms and cognitive function. The corresponding tests are a 25 feet (7.6 m) walk; test of 9 holes and pin and the Paced Auditory Serial Addition test 3 (PASAT3). Multiple attempts will be made of each test in each visit. The MSFC score and the scores of the 3 sub-scales and the change from the basal values will be recorded in each visit
# One measure of progressive MS disease severity is the Expanded Disability Status Scale (EDSS). EDSS is a scale to determine the neurological disability in MS and is used to confirm progression of the disease. It consists of a system of two parts. The first part measures eight functional systems (FS). The second part measures disability on a scale of […], zero being no disability and 10 being death due to MS.
# The Nine Hole Pin Test (9HPT) is a component of the MS Functional Composite (MSFC) score. 9HPT is a timed test measuring the time (seconds) required to insert each of nine pins into nine holes in a plank. The test is done on each of the right and left arms. The test measures eye-hand coordination and fine muscle control. […]
# dendritic cells = conditions: mice model; cited from earlier work
# EAE model = conditions: prophylactic administration; cited from earlier work
# PPMS patients = conditions: cited from earlier work
# SP & PPMS forms = conditions: summary of prior art; cited from earlier work
# progressive MS patients = conditions: cited from earlier work
# [5] = system: patients with RRMS, PRMS and SPMS with relapses; conditions: 2 years follow-up, p=0.05; cited from earlier work
# [6] = system: patients with worsening RRMS or SPMS with relapses; conditions: 24 months, 95% CI 0.17-0.44; p<0.001; cited from earlier work
# [7] = system: patients with all clinical forms of MS; conditions: cited from earlier work
# MS participants = conditions: cited from earlier work
# SPMS and PPMS patients = conditions: cited from earlier work
# patients with PPMS = conditions: 95% confidence interval 0.71-1.07; p=0.1753; non-significant delay; cited from earlier work
# [8] = system: subjects with Secondary progressive MS with relapses; conditions: vs placebo; cited from earlier work
# [9] = system: patients with Secondary progressive MS; conditions: cited from earlier work
# [10] = system: Lymph node cell suspensions obtained from C57BL/6 and BALB/c mice; test: Lymph node cell co-culture, IL-2 release (ELISA) and T cell proliferation (Cell Titer); format: cell-based; conditions: increasing concentrations, 72 h, FIG. 1A
# Method: (§1) (A) Lymph node cell suspensions obtained from C57BL/6 and BALB/c mice were co-cultured with increasing concentrations of IB-MS for 72 h. After this time, supernatants were harvested and analyzed for IL-2 release by ELISA assay (circles) and T cell proliferation (squares) was determined by Cell Titer assay. (B) Mice treated with vehicle (solid circles) or andrographolide (empty circles) were MOG-immunized one week later and clinical score determined daily.
# MOG-immunized mice (EAE) = test: EAE prevention: treatment before MOG immunization, daily clinical score; format: in vivo; conditions: MOG-immunized one week after treatment, FIG. 1B
# Method: as §1
# [11] = 4 mg/kg daily, day 15 to day 20 post-immunization, FIG. 3
# [12] = twelve months of treatment, FIG. 7
compound,measurement,setting,value
"C=C1CC[C@@H]2[C@](C)(CO)[C@H](O)CC[C@@]2(C)[C@@H]1C/C=C1/C(=O)OC[C@H]1O [andrographolide, Andrographolide]","reactive oxygen species, TNF-α, nitric oxide and prostaglandins E2",microglia,reduces
same,tolerability and safety,[1],well tolerated and safe
same,process of activation of Jurkat cell line,[2],decreases
same,demyelination in spinal cord (LFB),[3]; [11],reduced
same,inflammatory infiltrate in spinal cord (H&E),[3]; [11],reduced
same,"efficacy, interim results",[4]; 12 months of treatment,statistically-significant efficacy
same,Expanded Disability Status Scale (EDSS),"[4]; 12 months of treatment vs placebo, FIG. 6",an improvement viz placebo which becomes statistically-significant by nine months
same,MSIS 29 scale scores,"[4]; preliminary, 2 years vs day 0, FIG. 11",maintain or slightly improve their scores
same,MSIS 29 scale,"[4]; treatment group (a), after 2 years, from 80 at day 0, FIG. 11",90 percentage
same,"Nine Hole Pin Test, left hand (9HPT-L), time to complete",[4]; [12],the improvement becomes statistically significant almost immediately
same,"Nine Hole Pin Test, right hand (9HPT-R), time to complete",[4]; [12],improvement becomes statistically significant by twelve months of treatment
same,9-HPT (upper extremity function),"[4]; up to 2 year treatment, FIG. 10",the treated patients are more skilled and more quickly complete the task
same,"25-Feet Walk Test (25 FWT), time to complete","[4]; vs placebo, twelve months, preliminary data, FIG. 8",improvement becomes statistically significant immediately on commencement of treatment
same,maturation of dendritic cells and capacity to present antigens to T cells,dendritic cells,decreases
same,development of EAE,EAE model,prevents the development Of EAE
Rituximab,increase in T2 lesion volume,"PPMS patients; baseline to week 96, p<0.001",less
same,brain volume change,"PPMS patients; baseline to week 96, p=0.62",similar
same,"confirmed disease progression, 96-week rate","PPMS patients; placebo 38.5%, p=0.14, not significant",30.2%
same,adverse events,PPMS patients; vs placebo,comparable between groups
"CN(Cc1cnc2nc(N)nc(N)c2n1)c1ccc(C(=O)N[C@@H](CCC(=O)O)C(=O)O)cc1 [methotrexate, Methotrexate]",slowing down / reduction of disability progression in progressive MS,SP & PPMS forms,do not show a reduction in the progression of disability
same,major side effects,progressive MS patients; in vivo,no major side effects
same,minor side effects reported,progressive MS patients; placebo 89.7%,87.1%
same,sustained EDSS progression and number of relapses,progressive MS patients; vs placebo,non-significant reduction
same,time to first relapse,progressive MS patients; vs placebo,no difference in time to first relapse
"O=C1c2c(O)ccc(O)c2C(=O)c2c(NCCNCCO)ccc(NCCNCCO)c21 [mitoxantrone, Mitoxantrone]",slowing down / reduction of disability progression in progressive MS,SP & PPMS forms,do not show a reduction in the progression of disability
same,proportion of patients with 6-months confirmed progression of disability (Odds Ratios),[5],0.3
same,different clinical measures (difference vs placebo),[6],0.3
natalizumab,slowing down / reduction of disability progression in progressive MS,SP & PPMS forms,no effect on the progressive forms
"Cn1cnc([N+](=O)[O-])c1Sc1ncnc2nc[nH]c12 [azathioprine, Azathioprine]",slowing down / reduction of disability progression in progressive MS,SP & PPMS forms,do not show a reduction in the progression of disability
same,"number of patients who had relapses, relative risk reduction [RRR]","[7]; first year of treatment, 95% CI=5% to 33%",20%
same,"number of patients who had relapses, relative risk reduction [RRR]","[7]; three years follow-up, 95% CI=7% to 27%",18%
same,"number of patients who progressed, RRR","[7]; three years' follow-up, 95% CI=7% to 64%, 87 patients",42%
same,"number of patients who had relapses, relative risk reduction [RRR]","[7]; two years, 95% CI=12% to 33%",23%
"O=P1(N(CCCl)CCCl)NCCCO1 (stereo not drawn) [cyclophosphamide, Cyclophosphamide]",slowing down / reduction of disability progression in progressive MS,SP & PPMS forms,do not show a reduction in the progression of disability
same,long-term clinical disability progression (evolution to a next step of EDSS score),"MS participants; 12, 18, 24 months",did not prevent
same,mean change in disability (effect size),"MS participants; 12 months, 95% confidence interval −0.25 to −0.17",−0.21
same,mean change in disability (effect size),"MS participants; 18 months, 95% confidence interval −0.24 to −0.14","−0,19"
same,mean change in disability (effect size),"MS participants; 24 months, CI 0.07 to 0.21, favoured the control group",0.14
Glatiramer Acetate,slowing down / reduction of disability progression in progressive MS,SP & PPMS forms,failed to demonstrate efficacy
same,local injection-site reactions,SPMS and PPMS patients; in vivo,up to a half of patients
same,major toxicity,SPMS and PPMS patients; in vivo,No major toxicity
same,benefit in SPMS and PPMS patients,SPMS and PPMS patients; meta-analysis,No benefit
same,time to sustained accumulated disability (hazard ratio),patients with PPMS,0.87
Interferon beta-1b [IFNB-1b],slowing down / reduction of disability progression in progressive MS,SP & PPMS forms,failed to demonstrate efficacy
same,relapse and MRI-related outcomes,[8],significant benefit
same,time to confirmed progression of disability,[8],no treatment benefit
same,time to confirmed 1.0 point progression on the Expanded Disability Status Scale (EDSS),[9]; p=0.007,delayed
same,"progression of 2.0 EDSS point, lower",[9]; vs placebo,27%
Andrographolide,"T cell activation (IL-2 release, T cell proliferation)",[10],interferes with T cell activation
same,EAE clinical score,MOG-immunized mice (EAE),prevents EAE
same,effect in EAE,"[3]; 4 mg/kg every second day, day 15 to day 30 post-immunization, FIG. 2",has a therapeutic effect in EAE
